Where two headings read alike, the source gives them in different places.
Experiments:
[1] = system: P. falciparum (3D7 strain); test: In vitro antiplasmodial activity, P. falciparum blood-stage parasites, SYBR Green I; type: cell-based, Plasmodium falciparum; conditions: 3D7 strain, 72 h, SYBR Green I, read-out: IC50^Pf
Protocol: The P. falciparum strains were cultivated in human blood cells (hRBC) O^+, while P. knowlesi was cultivated in rhesus red blood cells (rRBC) as described. P. falciparum complete RPMI (consisting of RPMI-1640, supplemented with 0.2% NaHCO3, 25 mM HEPES (pH 7.4), 11 mM D-glucose, 10 mg/L hypoxanthine, 25 mg/L gentamicin, and 0.5% (m/v) AlbuMAX II). The parasitemias of these cultures were maintained below 10% with 2.5% hematocrit. P. knowlesi complete RPMI (consisting of RPMI-1640 supplemented with 25 mM HEPES, […] hypoxanthine, 0.26% NaHCO3, 10 mg/L gentamicin, and 1% Albumax II). This culture was maintained with RBCs up to 5% hematocrit. The culture medium was changed daily, and all cultures were maintained under a 90% N2/5% CO2/5% O2 gas mixture at 37 °C. All compounds were purchased from Sigma-Aldrich (Cotia, Brazil).
The antiplasmodial activity of brussonol and derivatives was evaluated against P. falciparum blood parasites 3D7(chloroquine-sensitive). The parasites were synchronized through sterile 5% (m/v) D-sorbitol treatment over 10 min at 37 °C for the enrichment of ring stages. Centrifugation 600× g over 5 min was used to pellet the cultures. The parasitemia was determined by microscope analysis of thin blood smears stained with Giemsa 10% (v/v) after fixation with methanol. The initial parasitemia was calculated for 1000 red blood cells (RBCs), and cultures were diluted to 0.5% parasitemia and 2% hematocrit by the addition of the appropriate volumes of blood and medium. A total of 180 µL aliquots of parasites were distributed into 96-well plates followed by the addition of 20 µL of previously prepared aliquots of ten-fold concentrated compounds, the range of concentrations tested was 10–1.53 µM. Negative and positive control wells, which correspond to non-parasitized erythrocytes and parasite cultures in the absence of compounds, were set in parallel. The DMSO concentration was maintained below 0.05% (v/v) for all compounds except for brussonol, which was 0.5%. The plates were incubated for 72 h at 37 °C in a humidified incubator with a gas mixture of 90% N2, 5% O2, and 5% CO2. Each test was performed in duplicates, and the results were compared with the control cultures. Once completed incubation, the culture medium was removed, and the cells were resuspended in 100 µL PBS (116 mM NaCl, 10 mM NaH2PO4, 3 mM KH2PO4) and lysed with 100 µL lysis buffer (20 mM Tris base, 5 mM EDTA, 0.0008% (v/v) Triton X-100, 0.008% (m/v) saponin, pH 8.0) containing 0.002% (v/v) SYBR Green I. Plates were incubated for 30 min at room temperature, and a SpectraMAX Gemini EM plate reader (Molecular Devices Corp., Sunnyvale, CA) was used to determine the fluorescence corresponding to parasitic density (excitation at 485 nm, emission at 535 nm). The half-maximal inhibitory concentration (IC50^Pf) was determined by non-linear regression analysis of the resulting concentration–response curve using the software GraphPad Prism version 8.0.1 for Windows, GraphPad Software, San Diego, California USA, www.graphpad.com, accessed on 3 March 2022”.

HepG2 cells = test: Cytotoxic test on immortalized cells, MTT; type: cell-based, human; conditions: HepG2, 72 h
Protocol: The cytotoxic effects of brussonol and derivatives were evaluated against the human hepatocellular carcinoma cell line (HepG2). The cells were cultivated in an RPMI medium supplemented with 10% (v/v) fetal bovine serum and 25 µg/mL gentamicin. Conditions for the cultivation of these cells were 37 °C and 5% CO2, and every 2 days the supplemented medium was changed.
For experimental procedures, the cells were trypsinized and transferred to a 96-well plate at 30,000 cells per well (180 µL). The plate was incubated at 37 °C and 5% CO2 to allow cell adhesion. Next, 20 µL of serial dilutions of the compounds tested were added to the plate, with a range of concentrations tested from 400–6.25 µM. Cells without any compounds were used as a positive control for growing and the wells containing only medium were used as negative controls. The plate was incubated for 72 h at 37 °C and 5% CO2. After incubation, a microscope was used to determine the highest compound concentration to be used in the experiments (highest concentration without precipitation). A colorimetric assay was used to evaluate cytotoxicity. This assay is based on the metabolic cell activity in the presence of 3-(4,5-dimethylthiazol-2-yl)-2,5-diphenyltetrazolium bromide (MTT). Shortly after incubation, 20 µL of a solution of MTT at 5 mg/mL (solubilized in phosphate buffer) is added to each well. The plate is incubated for 3 to 4 h at 37 °C to allow MTT cleavage in living cells. Then, the supernatant is removed, and 100 µL of dimethylsulfoxide (DMSO) is added to solubilize the purple formazan crystals. The absorbance, which is proportional to the number of viable cells, was determined using a SpectraMAX Plus 384 plate reader (Molecular Devices Corp., Sunnyvale, CA) (λ = 570 nm). All compounds described here were purchased from Sigma-Aldrich (verificar local).
After the IC50 against the parasite and the human cell line is determined, it is possible to calculate the SI. It is calculated as the formula below:SI = IC50^HepG2/IC50^Pf.
For our reference, compounds with SI values higher than 10 are considered well tolerated by the cellular model used, and they are considered for further evaluation.

hemozoin formation = test: Hemozoin formation inhibition assay; type: biochemical; conditions: hemin 25 µM, pH 4.8, 4 h, one experiment in triplicate
Protocol: 2. Hemozoin Formation Inhibition Assay
The hemozoin formation inhibition assay was performed as described previously.12 Briefly, serial 1:3 dilutions, in a 96‐well plate, wit h brussonol were made in a final volume of 20 μL in a concentration 10 times higher than the final concentration of the assay. Secondly, 90 μ L of freshly prepared hemin (at a final concentration of 25 μM) solution in 1M NaOAc/HOAc buffer pH 4.8 were added followed by addition of 90 μ L of 5.4 mg/L Tween 20 solution freshly prepared. The plates were let to stand for 4 hours at 37 °C followed by resuspension with multichannel pippete and read at 415 and 630 nm using a SpectraMAX Plus 384 plate reader (Molecular Devices Corp., Sunnyvale, CA).
Due to the absence of enough compound, this experiment wa s performed only once, but with internal triplicate. Chloroquine (CQ) and pyrimethamine (PYR) were used as positive and negative control of inhibition, respectively.
Inhibition (%) = 100 – 100 x [(Aco ntro l – Asample) / (Acontrol - Amin)] Acontrol is the difference of the absorbance at 415 and 630 nm of the negative control (Hemin +, Tween 20 ‐, Compound ‐); Amin is the difference of the absorbance at 415 and 630 nm of the positive control (Hemin +, Tween 20 +, Compound ‐ ); Asample is the difference of the absorbance at 415 and 630 nm of the sample. The hemozoin formation inhibition assay was performed to evaluate if brussonol act inhibiting hemozoin formation in P. falciparum. CQ, which is a well‐known inhibitor of hemozoin […]
Figure S1. Hemozoin formation inhibition assay. Different concentrations of CQ (black triangles), PYR (red squares) and brussonol (blue circles) were incubated with heme in triplicates. Th e absorbance was recorded at 415/630 nm to determine the hemozoin formation inhibition. […]

P. falciparum 3D7 strain = test: Chemical rescue assay with isopentenyl pyrophosphate (IPP); type: cell-based, Plasmodium falciparum; conditions: Plasmodium falciparum, 3D7 strain, 72 h
Excerpt: To evaluate whether brussonol interfered with the biosynthesis of […] in malaria parasites, we conducted a chemical rescue assay. The assay identifies compounds that interfere with the metabolism of isoprenoids by “rescuing” their growth inhibition through the supplementation of isopentenyl pyrophosphate (IPP), a key precursor of isoprenoid biosynthesis. […] Thus, the chemical rescue assay compares the IC50 values of the tested compound in the presence and absence of IPP. We used fosmidomycin (FOS) as a positive control for growth inhibition rescuing upon supplementation of IPP (Figure 7b). In this assay, compounds that interfere in the metabolism of isoprenoids show a significant increment in the IC50 value in the presence of IPP (Figure 7b).
The chemical rescue assay was carried out as described by Yeh and DeRisi (2011). This assay consists in verifying the IC50 value of the tested compounds with and without the isopentenyl pyrophosphate (IPP), purchased from Isoprenoids, LC (Florida, USA). Briefly, 3D7 strain ring stages were cultured in 96-well plates, with 0.5% parasitemia and 2% hematocrit. Non-parasitized erythrocytes and parasitized erythrocytes without drugs were used as growth controls, and fosmidomycin (FOS) was used as a positive control for chemical rescue. Serial dilutions of brussonol and FOS were prepared in duplicates. In the same 96-well plate, brussonol and FOS had their antiplasmodial activity evaluated with and without supplementation of 200 µM IPP. Plates were incubated for 72 h and analyzed by the SYBR Green I assay.

[2] = system: cytosolic Ca^2+ in P. falciparum; test: [Ca2+]cyt measurements in isolated parasites loaded with Fluo-4AM; type: cell-based, Plasmodium falciparum
Protocol: One of the compounds identified in the structural similarity search was the cyclopiazonic acid (CPA) (Figure 8a). […] Because of that, brussonol activity on the modulation of the SERCA pump was investigated. To assess the effect of brussonol on calcium mobilization in P. falciparum intraerythrocytic stages, isolated parasites loaded with Fluo-4-AM were exposed to 10 μM brussonol in MOPS Ca^2+ buffer. […] To verify if the brussonol-elicited [Ca^2+]cyt increment originated from the endoplasmic reticulum (ER), targeting the PfSERCA pump, CPA was added before the addition of brussonol. […] In the brussonol-pretreated parasites, the addition of CPA still increased the cytosolic Ca^2 + level (30 ± 5 nM) (Figure 8d).
Isolated parasites were incubated for 1 h at 37 °C with 5 μM of Fluo-4AM in 1 mL MOPS buffer (116 mM NaCl, 5.4 mM KCl, 0.8 mM MgSO4, 5.5 mM D-glucose, 50 mM MOPS, and 2 mM CaCl2, pH 7.2), with 1 mM probenecid to minimize compartmentalization and extrusion of probe. The parasites were washed three times with the same buffer and transferred to a quartz cuvette. Intracellular calcium was measured continuously using a Hitachi F-7000 spectrofluorimeter (Tokyo, Japan) by measurement of the fluorescence (λex = 488 nm and λem = 530 nm) at 37 °C, under agitation. When indicated, 10 µM of cyclopiazonic acid (CPA) or 10 µM of brussonol were added to the cuvette. Maximal fluorescence (Fmax) was determined after the lysis of with digitonin 0.15% (m/v), and minimal fluorescence (Fmin) was determined by adding 25 mM EGTA in 3 M Tris, pH 8.8, until no further decrease in fluorescence was observed. The cytosolic calcium concentration ([Ca^2+]cyt) was calculated from the fluorescence data (F) using a Kd value of 345 nM using the formula:Ca^2 +cyt = 345 × [(F − Fmin)/(Fmax − F)]
The results (n = 2) were analyzed through One-Way ANOVA with Tukey post-test. All compounds described here were purchased from Sigma-Aldrich (verificar local).

[3] = Plasmodium falciparum, 3D7, 72 h

Compound | IC50 [1, 3] [µM] | also measured
Oc1ccc(O)c2c1C[C@@]13CCCC[C@@H]1C[C@@H]2O3 (racemic) [Compound 5] | > 10 | 
COc1ccc2c(c1OC)C[C@@]13CCCC(C)(C)[C@@H]1C[C@@H]2O3 (racemic) [Compound 9] | > 10 | 
CC(C)c1cc2c(c(O)c1O)C[C@@]13CCCC[C@@H]1C[C@@H]2O3 (racemic) [Compound 13] | > 10 | 
COc1c2c(c(-c3ccccc3)c(C(C)C)c1OC)[C@@H]1C[C@H]3CCCC[C@@]3(C2)O1 (racemic) [Compound 15] | 5.89 ± 0.02 | IC50 (HepG2 cells; Homo sapiens): > 50 µM
CCN(CC)CCCC(C)Nc1ccnc2cc(Cl)ccc12 (stereo not drawn) [Chloroquine, reference compound] |  | IC50 (hemozoin formation): 80 µM
COc1ccc2c(c1OC)CC13CCCCC1CC2O3 (stereo not drawn) [Compound 2] | > 10 | 
COc1ccc(OC)c2c1CC13CCCCC1CC2O3 (stereo not drawn) [Compound 3] | > 10 | 
Oc1ccc2c(c1O)CC13CCCCC1CC2O3 (stereo not drawn) [Compound 4] | > 10 | 
O=C1C=CC(=O)C2=C1CC13CCCCC1CC2O3 (stereo not drawn) [Compound 6] | > 10 | 
O=CN(O)CCCP(=O)(O)O [fosmidomycin, reference compound] |  | IC50 (P. falciparum 3D7 strain; with 200 µM IPP, read-out: IC50 in the presence of IPP): > 20 µM; IC50 (P. falciparum 3D7 strain; without IPP, read-out: IC50 in the absence of IPP): 1.2 ± 0.2 µM
cyclopiazonic acid [reference compound] |  | [Ca^2+]cyt rise in brussonol-pretreated parasites ([2]; 10 µM CPA added after 10 µM brussonol): 30 ± 5 nM; [Ca^2+]cyt rise ([2]; 10 µM compound alone, MOPS Ca^2+ buffer, relative to basal level): 23 ± 2 nM

Continued, in another order:

IC50 [1, 3] [µM] | Compound | also measured
~5 | COc1c2c(c(OC)c(C(C)C)c1OC)[C@@H]1C[C@H]3C(C)(C)CCC[C@@]3(C2)O1 (racemic) [Compound 8] | IC50 (HepG2 cells): 170 ± 38 µM; IC50 (HepG2 cells; Homo sapiens): > 170 µM
~5 | COc1c2c(c(Br)c(C(C)C)c1OC)[C@@H]1C[C@H]3C(C)(C)CCC[C@@]3(C2)O1 (racemic) [Compound 10] | IC50 [1]: 5.6 ± 0.1 µM
5.8 ± 0.2 | COc1c2c(c(-c3ccccc3)c(C(C)C)c1OC)[C@@H]1C[C@H]3C(C)(C)CCC[C@@]3(C2)O1 (racemic) [Compound 11] | IC50 (HepG2 cells; Homo sapiens): > 12 µM
~5 | COc1c(C(C)C)cc2c(c1OC)C[C@@]13CCCC[C@@H]1C[C@@H]2O3 (racemic) [Compound 12] | IC50 [1]: 5.6 ± 0.8 µM
5.2 ± 0.4 | COc1c(C(C)C)cc2c(c1OC)CC13CCCC(C)(C)C1CC2O3 (stereo not drawn) [Compound 7] | IC50 (HepG2 cells; Homo sapiens): > 192 µM
5.65 ± 0.05 | COc1c2c(c(Br)c(C(C)C)c1OC)C1CC3CCCCC3(C2)O1 (stereo not drawn) [Compound 14] | IC50 (HepG2 cells; Homo sapiens): > 25 µM

Source: publication PMC9321043, “Synthesis, Structure–Activity Relationships, and Parasitological Profiling of Brussonol Derivatives as New Plasmodium falciparum Inhibitors” (Pharmaceuticals, 2022)
